Results reported in PubChem BioAssay (NCI).
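Step 1: Grow cells in 96-well plates. Step 2: Expose to compound for 48 hours at 5 concentrations. Step 3: Interpolate endpoints linearly; if unreached, use highest concentration. GI50 marks 50% less growth. At the TGI there is no net growth.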

Assays:
Assay in all cases: inhibition of tumour cell growth, NCI panel, 48 h
SW-620 colon = tested on: SW-620 colon
RPMI-8226 leukemia = tested on: RPMI-8226 leukemia
SF-539 CNS = tested on: SF-539 CNS
CCRF-CEM leukemia = tested on: CCRF-CEM leukemia
OVCAR-8 ovarian = tested on: OVCAR-8 ovarian
NCI-H460 lung = tested on: NCI-H460 lung
NCI/ADR-RES ovarian = tested on: NCI/ADR-RES ovarian
M14 melanoma = tested on: M14 melanoma
T-47D breast = tested on: T-47D breast
786-0 renal = tested on: 786-0 renal
HCT-116 colon = tested on: HCT-116 colon
SNB-75 CNS = tested on: SNB-75 CNS
HT29 colon = tested on: HT29 colon
LOX IMVI melanoma = tested on: LOX IMVI melanoma
UO-31 renal = tested on: UO-31 renal
OVCAR-5 ovarian = tested on: OVCAR-5 ovarian
MOLT-4 leukemia = tested on: MOLT-4 leukemia
HOP-92 NSCLC = tested on: HOP-92 NSCLC
SK-MEL-28 melanoma = tested on: SK-MEL-28 melanoma
MDA-MB-435 = tested on: MDA-MB-435
SN12C renal = tested on: SN12C renal
HL-60(TB) leukemia = tested on: HL-60(TB) leukemia
TK-10 renal = tested on: TK-10 renal
ACHN renal = tested on: ACHN renal
SF-268 CNS = tested on: SF-268 CNS
SR leukemia = tested on: SR leukemia
COLO 205 colon = tested on: COLO 205 colon
SK-OV-3 ovarian = tested on: SK-OV-3 ovarian
OVCAR-4 ovarian = tested on: OVCAR-4 ovarian
UACC-62 melanoma = tested on: UACC-62 melanoma
DU-145 prostate = tested on: DU-145 prostate
SK-MEL-2 melanoma = tested on: SK-MEL-2 melanoma
MDA-MB-231 breast = tested on: MDA-MB-231 breast
SNB-19 CNS = tested on: SNB-19 CNS
K-562 leukemia = tested on: K-562 leukemia
SF-295 CNS = tested on: SF-295 CNS
U251 CNS = tested on: U251 CNS
EKVX NSCLC = tested on: EKVX NSCLC
PC-3 prostate = tested on: PC-3 prostate
RXF 393 renal = tested on: RXF 393 renal
A549 NSCLC = tested on: A549 NSCLC
UACC-257 melanoma = tested on: UACC-257 melanoma
CAKI-1 renal = tested on: CAKI-1 renal
KM12 colon = tested on: KM12 colon
HCT-15 colon = tested on: HCT-15 colon

For `C=CC/C(=C\COP(=O)(OCc1ccc([N+](=O)[O-])o1)N(C)CCCCCl)CC/C=C(\C)CCC=C(C)C` (stereo not given), the GI50 (SW-620 colon) was 9.44 µM, the TGI (SW-620 colon) was 21.3 µM and the GI50 (RPMI-8226 leukemia) was 4.66 µM. The TGI (RPMI-8226 leukemia) was 19.3 µM, the GI50 (SF-539 CNS) was 22.5 µM and the TGI (SF-539 CNS) was 39.4 µM. It also gave a GI50 (CCRF-CEM leukemia) of 48.3 nM, a TGI (CCRF-CEM leukemia) of 15.9 µM and a GI50 (OVCAR-8 ovarian) of 12.6 µM. For the same molecule, the TGI (OVCAR-8 ovarian) was 25.1 µM, the GI50 (NCI-H460 lung) was 2560 nM and the TGI (NCI-H460 lung) was 15.1 µM. It also gave a GI50 (NCI/ADR-RES ovarian) of 11.9 µM, a TGI (NCI/ADR-RES ovarian) of 24.1 µM and a GI50 (M14 melanoma) of 4.04 µM. It also gave a TGI (M14 melanoma) of 18.2 µM, a GI50 (T-47D breast) of 20.6 µM and a TGI (T-47D breast) of 53.9 µM. It also gave a GI50 (786-0 renal) of 13.2 µM, a TGI (786-0 renal) of 25.9 µM and a GI50 (HCT-116 colon) of 3.76 µM. For the same molecule, the TGI (HCT-116 colon) was 18 µM, the GI50 (SNB-75 CNS) was 13.5 µM and the TGI (SNB-75 CNS) was 29.1 µM. It also gave a GI50 (HT29 colon) of 11.6 µM, a TGI (HT29 colon) of 25.5 µM and a GI50 (LOX IMVI melanoma) of 13.8 µM. The TGI (LOX IMVI melanoma) was 31.4 µM, the GI50 (UO-31 renal) was 12.6 µM and the TGI (UO-31 renal) was 25.1 µM. The GI50 (OVCAR-5 ovarian) was 15.7 µM, the TGI (OVCAR-5 ovarian) was 29 µM and the GI50 (MOLT-4 leukemia) was 8.03 µM. It also gave a TGI (MOLT-4 leukemia) of 36.3 µM, a GI50 (HOP-92 NSCLC) of 14.5 µM and a TGI (HOP-92 NSCLC) of 27.6 µM. It also gave a GI50 (SK-MEL-28 melanoma) of 17.2 µM, a TGI (SK-MEL-28 melanoma) of 32.9 µM and a GI50 (MDA-MB-435) of 16.8 µM. For the same molecule, the TGI (MDA-MB-435) was 44.1 µM, the GI50 (SN12C renal) was 13.6 µM and the TGI (SN12C renal) was 26.4 µM. The GI50 (HL-60(TB) leukemia) was 21.9 µM, the TGI (HL-60(TB) leukemia) was greater than 100 µM and the GI50 (TK-10 renal) was 83.8 µM. For the same molecule, the TGI (TK-10 renal) was greater than 100 µM, the GI50 (ACHN renal) was 15.5 µM and the TGI (ACHN renal) was 30.2 µM. The GI50 (SF-268 CNS) was 12 µM, the TGI (SF-268 CNS) was 29 µM and the GI50 (SR leukemia) was 3.46 µM. It also gave a TGI (SR leukemia) of 41.8 µM, a GI50 (COLO 205 colon) of 20.4 µM and a TGI (COLO 205 colon) of 43.2 µM. The GI50 (SK-OV-3 ovarian) was 16 µM, the TGI (SK-OV-3 ovarian) was 30.6 µM and the GI50 (OVCAR-4 ovarian) was 17.2 µM. For the same molecule, the TGI (OVCAR-4 ovarian) was 39.3 µM, the GI50 (UACC-62 melanoma) was 13.8 µM and the TGI (UACC-62 melanoma) was 26.7 µM. It also gave a GI50 (DU-145 prostate) of 11.6 µM, a TGI (DU-145 prostate) of 23.8 µM and a GI50 (SK-MEL-2 melanoma) of 13.6 µM. It also gave a TGI (SK-MEL-2 melanoma) of 26.4 µM, a GI50 (MDA-MB-231 breast) of 12.7 µM and a TGI (MDA-MB-231 breast) of 34.1 µM. The GI50 (SNB-19 CNS) was 19.5 µM, the TGI (SNB-19 CNS) was 34.9 µM and the GI50 (K-562 leukemia) was 17.3 µM. It also gave a TGI (K-562 leukemia) greater than 100 µM, a GI50 (SF-295 CNS) of 17.1 nM and a TGI (SF-295 CNS) of 3.21 µM. For the same molecule, the GI50 (U251 CNS) was 11 µM, the TGI (U251 CNS) was 23 µM and the GI50 (EKVX NSCLC) was 18.9 µM. It also gave a TGI (EKVX NSCLC) of 35.7 µM, a GI50 (PC-3 prostate) of 12 µM and a TGI (PC-3 prostate) of 24.3 µM. The GI50 (RXF 393 renal) was 12.4 µM, the TGI (RXF 393 renal) was 24.9 µM and the GI50 (A549 NSCLC) was 13.9 µM. It also gave a TGI (A549 NSCLC) of 26.9 µM, a GI50 (UACC-257 melanoma) of 16.5 µM and a TGI (UACC-257 melanoma) of 30 µM. It also gave a GI50 (CAKI-1 renal) of 8.03 µM, a TGI (CAKI-1 renal) of 21.2 µM and a GI50 (KM12 colon) of 9.94 µM. The TGI (KM12 colon) was greater than 100 µM, the GI50 (HCT-15 colon) was 12.8 µM and the TGI (HCT-15 colon) was 30.4 µM.
